From US11998541B2, “Method for alleviating chronic liver disease using Rosoxacin” (National Yang Ming Chiao Tung University, priority 2022, dated 2024)
“Also recorded” adds a separate entry of the source.

How the values were obtained:
HepG2 cells [1] = test: Amount of accumulated lipid droplets in fatty acid-treated HepG2 cells (BODIPY, flow cytometry); assay type: cell-based, human; conditions: FIG. 2
Experimental: The HepG2 cells prepared in section 1 of “General Experimental Materials” were divided into 6 groups, including a normal control group, two comparative groups (i.e., comparative groups 1 and 2), a pathological control group, and two experimental groups (i.e., experimental groups 1 and 2). Each group of the HepG2 cells was incubated in a respective well of a 24-well culture plate containing 1 mL of DMEM medium at 1.2×10^5 cells/well, followed by cultivation in an incubator with culture conditions set at 37° C., 5% CO2. On the 24th and 48th hours after cultivation, the culture medium in each well was removed, and the cells of the respective group were added with the respective testing agent as shown in Table 2 below. […] After that, the supernatant was poured off, and the pellet was subjected to a fixation treatment with 4% paraformaldehyde (in PBS) for 15 minutes, followed by determining the fluorescence intensity using a flow cytometer (BD Biosciences, Cat. No. BD Accuri C6). The BODIPY was excited by an argon-ion laser (488 nm) to generate fluorescence. The fluorescence intensity was then measured at a wavelength of 504 nm, and 10,000 cells were analyzed each time. The data thus obtained were analyzed using BD Accuri C6 software, so as to obtain the mean fluorescence intensity (MFI) value in each group. […]

male C57BL/6JNarl mice [2] = test: CDAA diet induced NASH / liver fibrosis in mice, oral rosoxacin; assay type: in vivo; conditions: 50 mg/kg oral gavage once every two days, week 3 to 6 of CDAA diet
From the text: The male C57BL/6JNarl mice were randomly divided into a normal control group, a pathological control group, and an experimental group (n=6 per group). The mice in the normal control group were fed ad libitum for a total of 6 weeks with a normal chow diet (NCD) (Altromin, Cat. No. 1320). In addition, the mice in each of the pathological control group and the experimental group were fed ad libitum for a total of 6 weeks with a choline deficient L-amino acid defined diet (CDAA) (Research Diets, Cat. No. A21060401) containing 45% fat and 0.2% cholesterol, so as to induce NASH.
On the 3rd week after feeding the diet to the mice in each group as described in the preceding paragraph, the mice in the experimental group were also fed, via oral gavage, with the rosoxacin solution prepared in section A of Example 2, at a dose of 50 mg/kg per mouse. In addition, the mice in each of the normal control group and the pathological control group were fed, via oral gavage, with PBS at a volume of 150 μL. Each mouse was fed once every two days until the end of the 6th week after feeding with the diets. […]
Next, ImageJ Imaging software was used for quantitatively calculating the percentage (%) of Sirius Red-stained area. […] The data thus obtained were analyzed according to the procedures as described in section 1 of “General Procedures”.

α-SMA = test: Expression level of α-SMA in fatty acid-treated LX-2 cells (Western blotting); assay type: cell-based, human; conditions: fatty acid mixture + rosoxacin 50 μM (24th, 48th h), 900 μM (72nd h), p<0.0001, FIG. 8
Experimental: Each group of the LX-2 cells was incubated in a respective well of a 24-well culture plate containing 1 mL of DMEM medium at 1.2×10^5 cells/well, followed by cultivation in an incubator with culture conditions set at 37° C., 5% CO2. On the 24th and 48 th hours after cultivation, the culture medium in each well was removed, and the cells of the respective group were added with the respective testing agent as shown in Table 3 below. In addition, on the 72nd hour after cultivation, the cell culture of the respective group was added with the respective testing agent as shown in Table 3. On the 96th hour after cultivation, the liquid in each well was removed, and the cells were washed with PBS, followed by adding 500 μL of trypsin-EDTA to detach the cells from the bottom of the plate. Subsequently, 1 mL fresh DMEM medium was added to each well to neutralize trypsin activity, followed by centrifugation at 4° C. under a speed of 300 g for 3 minutes, so as to form a supernatant and a pellet. After that, the supernatant was poured off, and the resultant cell pellet was collected. […] The protein concentration in the total protein sample was determined using bicinchoninic acid assay kit (Thermo, Cat. No. 23227) in accordance with the manufacturer's instructions. […] Subsequently, ImageJ Imaging Software was used for semi-quantitatively calculating the corresponding protein expression level. […]

HepG2 cells [3] = test: Relative amount of accumulated lipid droplets in HepG2 cells, different quinolone antibiotics (BODIPY); assay type: cell-based, human; conditions: fatty acid mixture + antibiotic 50 μM (24th, 48th h), 900 μM (72nd h); FIG. 11
Experimental: The HepG2 cells prepared in section 1 of “General Experimental Materials” were divided into 7 groups, including a pathological control group, an experimental group, and five comparative groups (i.e., comparative groups 1 to 5). Each group of the HepG2 cells was incubated in a respective well of a 24-well culture plate containing 1 mL of DMEM medium at 1.2×10^5 cells/well, followed by cultivation in an incubator with culture conditions set at 37° C., 5% CO2.
On the 24th and 48th hours after cultivation, the culture medium in each well was removed, and the cells of the respective group were added with the respective testing agent as shown in Table 5 below. […]
The cell suspension of the respective one of the pathological control group, the experimental group, and the comparative groups 1 to 5 obtained in section B of this example was added with 50 μL of BODIPY solution (DMEM containing 13 μg/mL BODIPY 493/504 (Sigma-Aldrich, Cat No. 790389)), followed by placing on ice for 30 minutes in the dark to allow neutral lipid staining to be carried out. […] After that, the supernatant was poured off, and the pellet was subjected to a fixation treatment with 4% paraformaldehyde (in PBS) for 15 minutes, followed by determination of fluorescence intensity using a flow cytometer (BD Biosciences, Cat. No. BD Accuri C6).
The BODIPY was excited by an argon-ion laser (488 nm) to generate fluorescence. […]

male C57BL/6JNarl mice [4] = test: High-fat diet induced NAFLD in mice, oral rosoxacin; assay type: in vivo; conditions: for lipid droplets accumulated in liver (hematoxylin-eosin histology) / aspartate transaminase (AST) content in serum / alanine transaminase (ALT) content in serum: HFD; for lipid droplets accumulated in liver (hematoxylin-eosin histology): FIG. 5; for aspartate transaminase (AST) content in serum: FIG. 6; for alanine transaminase (ALT) content in serum: FIG. 7; for liver weight: FIG. 4
From the text: The male C57BL/6JNarl mice were randomly divided into a normal control group, a pathological control group, and two experimental groups (i.e., experimental groups 1 and 2) (n=5 per group). The mice in the normal control group were fed ad libitum for a total of 14 weeks with a normal chow diet (NCD) (Altromin, Cat. No. 1320). In addition, the mice in each of the pathological control group and the experimental groups 1 and 2 were fed ad libitum for a total of 14 weeks with a high-fat diet (HFD) (Research Diets, Cat. No. D12492) containing 60% fat, so as to induce NAFLD.
On the 5th week after feeding the diet to the mice in each group as described in section B of this example, the mice in each of the experimental groups 1 and 2 were also fed, via oral gavage, with the rosoxacin solution prepared in section A of this example, at a respective dose of 10 mg/kg per mouse and 50 mg/kg per mouse. In addition, the mice in each of the normal control group and the pathological control group were fed, via oral gavage, with PBS at a volume of 150 μL. Each mouse was fed once every two days until the end of the 14th week after feeding with the diets.
Prior to the feeding of the diets as described in section B of this example (i.e., at the 0th week), on the 1st day of each week after starting the feeding of the diets, and at the end of the 14th week after starting the feeding of the diets, the body weight of each mouse was measured.
After completion of the determination of body weight at the end of the 14th week, the mice in each group were sacrificed using CO2, and blood samples were collected via cardiac puncture at the same time. Each of the blood samples was then subjected to centrifugation at 4° C. under a speed of 1200 g for […], so as to obtain a serum sample. In addition, liver tissue was obtained from each mouse carcass, and then was subjected to weight measurement. The data thus obtained were analyzed according to the procedures as described in section 1 of “General Procedures”.
The liver tissue of each mouse obtained in section D of this example was subjected to a fixation treatment with a 10% paraformaldehyde solution for 24 hours. Next, the fixed liver tissue was subjected to a dehydration treatment performed in sequence using ethanol solutions having concentrations of […], respectively. After that, the dehydrated liver tissue was washed with xylene, and was then embedded with paraffin, followed by slicing, so as to obtain a tissue section having a thickness of 5 μm.
After dewaxing, the tissue section was subjected to hematoxylin-eosin staining using a staining protocol well-known to those skilled in the art, and was then observed under an optical microscope (Leica, Cat. No. DM2500) at a magnification of 20×.
The serum sample of each mouse obtained in section D of this example was subjected to determination of liver function indexes (i.e., aspartate transaminase (AST) and alanine transaminase (ALT)) which was entrusted to Bio-Cando Co., Ltd., so as to assess the degree of liver injury in the mouse. The data thus obtained were analyzed according to the procedures as described in section 1 of “General Procedures”.

[5] = experimental group 1: 10 mg/kg oral gavage once every two days
[6] = experimental group 2: 50 mg/kg oral gavage once every two days

Q: With `CCn1cc(C(=O)O)c(=O)c2ccc(-c3ccncc3)cc21` [rosoxacin, 1-ethyl-4-oxo-7-(4-pyridyl)-1,4-dihydroquinoline-3-carboxylic acid] as the compound, how does the “mean fluorescence intensity (MFI) value (accumulated lipid droplets)” value (HepG2 cells [1]; experimental group 1: fatty acid mixture + rosoxacin 10 μM (24th, 48th h), 180 μM (72nd h)) read?
A: lower than that of the pathological control group

Q: What about the “mean fluorescence intensity (MFI) value (accumulated lipid droplets)” value (HepG2 cells [1]; experimental group 2: fatty acid mixture + rosoxacin 50 μM (24th, 48th h), 900 μM (72nd h), p<0.001) of the same compound?
A: significantly lower than that determined in the pathological control group

Q: What about the “lipid droplets accumulated in liver (hematoxylin-eosin histology)” value (male C57BL/6JNarl mice [2]; FIG. 9) of the same compound?
A: significantly less than those in the pathological control group

Q: And the “percentage of Sirius Red-stained area” value (male C57BL/6JNarl mice [2]; p<0.0001, FIG. 10)?
A: significantly lower than that determined in the pathological control group

Q: And the “expression level of α-SMA (normalized to β-actin)” value (α-SMA)?
A: significantly lower than that determined in the pathological control group; also recorded: even lower than that determined in the normal control group

Q: And the “relative percentage of MFI value (pathological control group = 100%)” value (HepG2 cells [3])?
A: significantly lower than that determined in the pathological control group

Q: And the “lipid droplets accumulated in liver (hematoxylin-eosin histology)” value (male C57BL/6JNarl mice [4]; [5])?
A: significantly lower than those in the pathological control group

Q: And the “aspartate transaminase (AST) content in serum” value (male C57BL/6JNarl mice [4]; [5])?
A: apparently or significantly lower than those determined in the pathological control group

Q: What about the “alanine transaminase (ALT) content in serum” value (male C57BL/6JNarl mice [4]; [5]) of the same compound?
A: apparently or significantly lower than those determined in the pathological control group

Q: And the liver weight (male C57BL/6JNarl mice [4]; experimental group 1: 10 mg/kg oral gavage once every two days, week 5 to 14 of HFD, 10 mg/kg)?
A: apparently or significantly lower than that determined in the pathological control group

Q: And the “lipid droplets accumulated in liver (hematoxylin-eosin histology)” value (male C57BL/6JNarl mice [4]; [6])?
A: significantly lower than those in the pathological control group

Q: And the “aspartate transaminase (AST) content in serum” value (male C57BL/6JNarl mice [4]; [6])?
A: apparently or significantly lower than those determined in the pathological control group

Q: And the “alanine transaminase (ALT) content in serum” value (male C57BL/6JNarl mice [4]; experimental group 2: 50 mg/kg oral gavage once every two days, p<0.05)?
A: significantly lower than that determined in the pathological control group

Q: And the liver weight (male C57BL/6JNarl mice [4]; experimental group 2: 50 mg/kg oral gavage once every two days, week 5 to 14 of HFD, 50 mg/kg)?
A: apparently or significantly lower than that determined in the pathological control group; also recorded: even lower than that of the normal control group

Q: What about the body weight (male C57BL/6JNarl mice [4]; experimental group 2: 50 mg/kg oral gavage once every two days, week 5 to 14 of HFD, p<0.05, FIG. 3) of the same compound?
A: significantly lower than that determined in the pathological control group
